Tests used:
[1] = system: mouse eczema model; test: mouse atopic dermatitis/eczema model; type: in vivo
Method: Preparation and grouping of mouse […] model:
Model preparation: Male C57 mice aged 6-8 weeks were treated with 2% M7309 (carboplatin) ointment on their ears once a day for 10 consecutive days.
The experiment was divided into three groups, namely: • Eczema control group (without any treatment, eczema model group), TJ-M2010-5 systemic medication group (intraperitoneal injection), and TJ-M2010-5 local medication group (ointment group). The specific handling method is as follows: • TJ-M2010-5 systemic medication group: A mouse eczema model was taken and TJ-M2010-5 was injected intraperitoneally at a dose of 50 mg/kg, once a day, for 2 consecutive weeks. • TJ-M2010-5 local medication group: Take a mouse eczema model, apply 1% TJ-M2010-5 ointment on the skin, once a day, for 2 consecutive weeks.

[2] = system: CSDS depression model; test: Frustrative Depression (CSDS) model; type: in vivo, mouse; conditions: C57BL/6J mice
Method: Male C57BL/6J mice (6-7 weeks old, 18-20 g weight) and male CD-1 mice ([…] old) were used to create a model of Frustrative Depression (CSDS). C57BL/6J mice were attacked by different CD-1 […] for 10 minutes every day for 10 consecutive days. At night, the two types of mice were kept in the same cage separated by a perforated transparent glass to maintain the pressure of the attack.

[3] = system: mouse spleen derived B cells; test: R848 induced lupus like B cell immune disorder model in vitro; type: cell-based; conditions: TJ-5 10 or 20 μmol/L 3 hours before R848 500 ng/ml 48 hours
Method: Preparation and grouping of an in vitro lupus like B cell immune disorder model:
Model preparation: Mouse spleen derived B cells were purified using a magnetic bead sorting kit and cultured in vitro. Stimulating factor CD40L was added to maintain the long-term survival of B cells in vitro. Lupus like B cell immune disorders were induced by stimulating B cells with R848 (500 ng/ml) for 48 hours.
The experiment is divided into four groups, namely: • Control group (without any treatment, normal cultured B cells); • R848 group (model group): Stimulate B cells with R848 (500 ng/ml) for 48 hours; • TJ-5 (10 μM) Group: First use TJ-5 (10 μmol/L) Pre stimulate B cells for 3 hours, then stimulate B cells with R848 (500 ng/ml) for 48 hours; • TJ-5 (20 μM) Group: First use TJ-5 (20 μmol/L) Pre stimulate B cells […] for 3 hours, then stimulate B cells with R848 (500 ng/ml) for 48 hours.
Collect cells and cell culture supernatant for detection after R848 stimulation is completed.

[4] = system: middle cerebral artery occlusion (MCAO) model; test: reperfusion injury after acute cerebral infarction (MCAO model); type: in vivo, mouse; conditions: 15 mg/kg intravenously, 1 hour ischemia, 24 hours reperfusion
Method: Preparation and grouping of a mouse model of reperfusion injury after acute cerebral infarction: Model preparation: Adult male C57BL/6 mice (8-10 weeks old, weighing 22-25 g) were fasted for 8 hours before surgery and allowed to drink freely. Intraperitoneal injection of 1% pentobarbital sodium solution for anesthesia. […]

[5] = system: transplanted skin; test: allogeneic skin transplantation, Balb/c to B6; type: in vivo, mouse; conditions: used for 2 weeks then stopped
Source text: The paired mice for transplantation: The donor mouse is a balb/c mouse; The recipient mouse is B6 mouse. Transplant the donor's skin or heart separately to the recipient. After skin transplantation, INNA1605 (TJ-M2010-5) was continuously used for 2 weeks and then stopped. About 38% of the transplanted skin was permanently non-rejection. After administering TJ-M2010-5 for two weeks after allogeneic heart transplantation, 60% of the heart grafts were permanently not rejected. In these surviving recipient mice (non-rejection), the hearts of the same donor mice were transplanted for a second time without any treatment. The result was 100% non-rejection of the heart, confirming the development of immune tolerance against the same antigen (see FIGS. 34 and 35).

[6] = system: dry eye disease model; test: experimental dry eye (EDE) model; type: in vivo, mouse; conditions: day 9, vs EDE group
Source text: Dry eye disease was induced by placing mice in a experimental dry eye (EDE) condition and administering scopolamine to maximize ocular surface dryness. Animals were divided into three groups: non-EDE group, EDE group and EDE+TJ-5 group. Mice were euthanized on day 9 for cellular and molecular analysis.

[7] = system: inflammatory colon cancer model; test: AOM/DSS induced inflammatory colon cancer model; type: in vivo, mouse
Method: Preparation and grouping of mouse inflammatory colon cancer model:
Model preparation: 6-8-week-old male C57 mice were intraperitoneally injected with AOM (10 mg/Kg)/DSS (2.5%) to induce an inflammatory colon cancer model.
The experiment was divided into two groups, namely: • Inflammatory colon cancer model group (without any treatment, i.e. AOM/DSS group), TJ-M2010-5 medication group (intraperitoneal injection). The specific handling method is as follows: • TJ-M2010-5 medication group: Two days before inducing inflammatory colon cancer in C57 mice by intraperitoneal injection of AOM (10 mg/kg)/DSS (2.5%), TJ-M2010-5 was injected intraperitoneally at a dose of 50 mg/kg once a day for 10 consecutive weeks.

[8] = system: H22 hepatocellular carcinoma cells; test: subcutaneous H22 hepatocellular carcinoma implantation; type: in vivo, mouse; conditions: balb/c mice
Source text: H22 hepatocellular carcinoma cells were subcutaneously implanted in balb/c mice and allowed to grow freely. The animals were divided into two groups: the INNA1605 (TJ-M2010-5) group and the non-drug control group.

[9] = intraperitoneal 50 mg/kg once a day, 10 weeks

## O=C(CCN1CCN(Cc2ccccc2)CC1)Nc1nc(-c2ccccc2)cs1 [INNA1605, 3-(4-benzylpiperazine-1-yl)-N-(4-phenylthiazole-2-yl) propionamide]
[1]; 1% ointment once a day, 2 weeks
  therapeutic effect, local medication: excellent therapeutic effects
[1]; after treatment
  abnormally thickened stratum corneum: can basically restore normal tissue structure
  inflammation: significantly reduced
[1]; mouse, in vivo
  various inflammatory factors in the skin: decreased
[2]
  induced depressive behavior and neuroinflammation in the brain: significantly improves induced depressive behavior and neuroinflammation in the brain
[3]
  abnormal activation and differentiation of B cells: can inhibit abnormal activation and differentiation of B cells
  secretion of B cell autoantibodies and inflammatory factors: inhibit the secretion of B cell autoantibodies and inflammatory factors
[4]
  reduction of infarct volume of acute cerebral infarction: 80%
[5]
  transplanted skin permanently non-rejection: About 38%
[6]
  corneal fluorescein staining score: significantly lower corneal fluorescein staining score
  expression of IL-1β, TNF-α, MCP-1 and IL-6 in corneal tissues: reduced expression
[7]; BrdU, Ki-67
  proliferation of epithelial cells in the colon mucosa: significantly inhibited
[7]; MPO staining of colon mucosa
  neutrophil infiltration: significantly reduced
[7]; [9]
  inflammatory tissue damage of the colon mucosa: significantly reduced
  therapeutic effect: excellent
[7]; model group 100% cancerous transformation
  no carcinogenesis observed: 100%
[7]; mouse, in vivo
  colitis: disappeared
  mucosal thickening: improved
[8]
  tumor size: significantly smaller than that in the control group

Source: patent US20240180898A1, “USE OF AMINOTHIAZOLE DERIVATIVE IN TREATMENT OF IMMUNE INFLAMMATION” (INNAMUNE PHARMACEUTICAL CO. LTD., priority 2021, published 2024)
